In article PMC3764403 (Chemistry & Biology, 2008):
Like-named read-outs stand apart in the source and are kept apart here. Numbered stars: 1 amine (or outer) side, 2 acyl side, 3 side chain; on linkers, the order of the positions; unused ones are H or OH. Square brackets hold non-standard residues; d marks the D form. Side chains are listed from the residue outwards. Peptide text beside a SMILES is read from it. NMeF = CN[C@@H](Cc1ccccc1)C(=O)O; CO = O=C([*:1])[*:2]

Legend:
[1] = target: T1, chitinase B1 from Aspergillus fumigatus (AfChiB1) (Aspergillus fumigatus, UniProt Q873X9); assay: biochemical; conditions: for AfChiB1 BEI (Binding Efficiency Index): BEI = −log(Ki)/M, M in kilodaltons, Ki derived from IC50 by Cheng and Prusoff equation
T1 construct: made in house; host or cells: Escherichia coli
Procedure: Chitinase activities for AfChiB1 ([Rao et al., 2005b]), hCHT ([Boot et al., 1998]), and total chitinase activity in lung homogenate samples from a mouse model of chronic asthma were determined as previously described ([Schüttelkopf et al., 2006]). […] AfChiB1 (2 nM) was incubated with 20 μM 4-methylumbelliferyl-β-D-N-N'-diacetylchitobiose (4MU-GlcNAc2; Sigma) and 0.25 mg/ml bovine serum albumin in 100 mM citric acid, 200 mM Na2HPO4 (pH 5.5). hCHT (0.3 nM) was incubated with 22 μM 4-methylumbelliferyl-β-D-N-N'-triacetylchitobiose (4MU-GlcNAc3; Sigma) and 0.25 mg/ml bovine serum albumin in 100 mM citric acid, 200 mM Na2HPO4 (pH 5.2). Lung homogenate (39 μg/ml) (obtained as described previously [[Schüttelkopf et al., 2006]]) was incubated with 20 μM 4MU-GlcNAc2 in 100 mM citric acid, 200 mM Na2HPO4 (pH 5.5). All reactions were run for 10 min at 37°C, and liberated 4-methylumbelliferone (4MU) was quantified after addition of 25 μl 3 M glycine-NaOH (pH 10.6) using an Flx 800 microtiterplate fluorescence reader (Bio-Tek instruments) with 40 nm slits and excitation and emission wavelengths of 360 nm and 460 nm, respectively.

[2] = target: chitinase B from Serratia marcescens; design: method as in Houston et al., 2002b; conditions: ref Houston et al., 2002b; read-out: IC50 against chitinase B from Serratia marcescens; cited from earlier work
[3] = target: T1, chitinase B1 from Aspergillus fumigatus (AfChiB1); conditions: Table 1, argifin value reported previously, ref Rao et al., 2005b, Dixon et al.; cited from earlier work

Molecule | AfChiB1 BEI (Binding Efficiency Index) [1] | IC50 ([1]; read-out: IC50 against AfChiB1) [µM] | IC50 [2] [µM] | IC50 [3] [µM]
CNC(=O)NC(=N)NCCC[C@H](NC(C)=O)C(=O)N(C)[C@@H](Cc1ccccc1)C(=O)N[C@@H](CC(=O)O)C(=O)O [Tripeptide] (Ac-Arg([CO-NHMe])-[NMeF]-Asp-OH) | 10.2 |  |  | 
CNC(=O)NC(=N)NCCCC(NC(C)=O)C(=O)NC (stereo not shown) [Monopeptide] | 15.3 | 81 |  | 
argifin | 11.7 |  | 33 | 0.027
CNC(=N)NC(=O)NC [Dimethylguanylurea, dimethylguanylurea] | 27.7 |  |  | 
